# Assay results reported in patent US20070276011A1, “Plasminogen Activator Inhibitor-1 Inhibitor” (priority 2003, published 2007).
# Target: recombinant human PAI-1 (Homo sapiens, UniProt P05121)
# Experiment: PAI-1 inhibitory activity, Test Method A (tPA fluorogenic substrate, Tris buffer pH8.0, 37 C)
# Format: biochemical
# Details: 25 μM test compound; Test Method A
# Sequence of recombinant human PAI-1 (P05121 24-402): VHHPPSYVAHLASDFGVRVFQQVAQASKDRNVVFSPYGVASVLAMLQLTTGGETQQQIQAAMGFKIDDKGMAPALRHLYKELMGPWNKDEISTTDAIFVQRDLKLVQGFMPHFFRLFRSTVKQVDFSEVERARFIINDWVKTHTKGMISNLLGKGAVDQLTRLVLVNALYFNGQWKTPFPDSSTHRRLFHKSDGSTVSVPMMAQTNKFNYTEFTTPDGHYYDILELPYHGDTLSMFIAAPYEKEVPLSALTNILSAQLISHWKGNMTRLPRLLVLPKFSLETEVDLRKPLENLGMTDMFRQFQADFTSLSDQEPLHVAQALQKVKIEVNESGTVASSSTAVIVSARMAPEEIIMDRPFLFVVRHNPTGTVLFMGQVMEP
row,Structure (SMILES),Inhibitory Ratio at 25 μM (%)
1,"O=C1C(=Cc2ccc(O)c(O)c2)SC(=S)N1Cc1ccc(C=Cc2ccccc2)cc1 [compound 306, 5-(3,4-Dihydroxybenzylidene)-3-(4-styrylbenzyl)rhodanine]",>99
2,"O=C1C(=Cc2ccc(O)c(O)c2)SC(=S)N1Cc1ccc(C(F)(F)F)cc1 [compound 307, 5-(3,4-Dihydroxybenzylidene)-3-[4-(trifluoromethyl)benzyl]rhodanine]",>99
3,"O=C1SC(=Cc2ccc(Oc3ccccc3)cc2)C(=O)N1Cc1cc(O)c(O)c(O)c1 [compound 308, 5-(4-Phenoxybenzylidene)-3-(3,4,5-trihydroxybenzyl)thiazolidine-2,4-dione]",98
4,O=C1SC(=Cc2cccc(O)c2O)C(=O)N1Cc1ccc(Nc2ccccc2)cc1 [compound 309],>99
5,"O=C1SC(=Cc2cccc(Oc3ccccc3)c2)C(=O)N1Cc1cc(O)c(O)c(O)c1 [compound 310, 5-(3-Phenoxybenzylidene)-3-(3,4,5-trihydroxybenzyl)thiazolidine-2,4-dione]",>99
6,"O=C(Cc1ccccc1)Nc1ccc(CN2C(=O)SC(=Cc3cccc(O)c3O)C2=O)cc1 [compound 313, 5-(2,3-Dihydroxybenzylidene)-3-[4-(phenylacetylamino)benzyl]-thiazolidine-2,4-dione]",73
7,"O=C(CCc1ccccc1)Nc1ccc(CN2C(=O)SC(=Cc3cccc(O)c3O)C2=O)cc1 [compound 314, 5-(2,3-Dihydroxybenzylidene)-3-[4-(3-phenylpropionylamino)benzyl]-thiazolidine-2,4-dione]",>99
8,O=C(CCc1ccccc1)Nc1ccc(CN2C(=O)SC(=Cc3ccc(O)c(O)c3)C2=O)cc1 [compound 315],39
9,O=C1SC(=Cc2cccc(O)c2O)C(=O)N1Cc1cccc(Nc2ccccc2)c1 [compound 319],>99
10,O=C(Cc1cccc(Oc2ccccc2)c1)Nc1cccc(CN2C(=O)SC(=Cc3ccc(O)c(O)c3)C2=O)c1 [compound 321],>99

# Second part, the molecule after the results:
row,Inhibitory Ratio at 25 μM (%),Structure (SMILES)
1,>99,"O=C1SC(=Cc2ccc(O)c(O)c2)C(=O)N1Cc1cnc(Cl)c(Cl)c1 [compound 304, 5-(3,4-Dihydroxybenzylidene)-3-[(5,6-dichloropyridin-3-yl)-methyl]thiazolidine-2,4-dione]"
2,>99,"O=C1SC(=Cc2ccc(O)c(O)c2)C(=O)N1Cc1cc(C(F)(F)F)ccc1C(F)(F)F [compound 305, 5-(3,4-Dihydroxybenzylidene)-3-[2,5-bis(trifluoromethyl)benzyl]-thiazolidine-2,4-dione]"
3,>99,"O=C1SC(=Cc2ccc(O)c(O)c2)C(=O)N1Cc1cccc(Nc2ccccc2)c1 [compound 318, 5-(3,4-Dihydroxybenzylidene)-3-[3-(phenylamino)benzyl]thiazolidine-2,4-dione]"
4,89,"O=C1SC(=Cc2cc(C=Cc3ccccc3)ccc2O)C(=O)N1Cc1ccc(Cl)c(Cl)c1 [compound 322, 5-(2-Hydroxy-5-styrylbenzylidene)-3-(3,4-dichlorobenzyl)thiazolidine-2,4-dione]"
5,21,COc1ccc(C=C2SC(=O)N(Cc3ccc(Cl)c(Cl)c3)C2=O)cc1O [compound 323]
6,65,O=C1SC(=Cc2cc(O)c3c(c2)OCO3)C(=O)N1Cc1ccc(Cl)c(Cl)c1 [compound 324]
7,66,O=C1SC(=Cc2ccc(F)c(O)c2)C(=O)N1Cc1ccc(Cl)c(Cl)c1 [compound 326]
8,61,"COc1cc(C=C2SC(=O)N(Cc3ccc(Cl)c(Cl)c3)C2=O)ccc1Cl [compound 327, 5-(3-methoxy-4-chlorobenzylidene)-3-(3,4-dichlorobenzyl)-thiazolidine-2,4-dione]"

# Same assay, conditions: 50% inhibitory concentration of PAI-1 activity, according to the aforementioned method
row,Structure (SMILES),IC50 [nM]
1,"O=C1C(=Cc2ccc(O)c(O)c2)SC(=S)N1Cc1ccc(C(F)(F)F)cc1 [compound 307, 5-(3,4-Dihydroxybenzylidene)-3-[4-(trifluoromethyl)benzyl]rhodanine]",580
